How the values were obtained:
α1β2(F289C)γ2 GABAAR = α1β2(F289C)γ2 GABAAR (UniProt P18508+P47870+P62813, C260A/C282A/C312A/C319A/C341A/F313C); experiment: GABA-induced currents, two-electrode voltage clamp in Xenopus laevis oocytes; assay type: cell-based, rat α1 and γ2s, human β2
[1] = molecular target: α1β2(T225C,L285C)γ2 GABAAR (UniProt P18508+P47870+P62813, C260A/C282A/C312A/C319A/C341A/L309C/T249C); experiment: as above; assay type: cell-based, rat α1 and γ2s, human β2
α1β2(M286C)γ2 GABAAR = α1β2(M286C)γ2 GABAAR (UniProt P18508+P47870+P62813, C260A/C282A/C312A/C319A/C341A/M310C); experiment: as above; assay type: cell-based, rat α1 and γ2s, human β2
[2] = molecular target: α1(L232C)β2(M286C)γ2 GABAAR (UniProt P18508+P47870+P62813, C260A/C282A/C312A/C319A/C341A/L258C/M310C); experiment: as above; assay type: cell-based, rat α1 and γ2s, human β2
Chain of α1(L232C)β2(M286C)γ2 GABAAR (P62813 28-455 L258C/C260A/C319A): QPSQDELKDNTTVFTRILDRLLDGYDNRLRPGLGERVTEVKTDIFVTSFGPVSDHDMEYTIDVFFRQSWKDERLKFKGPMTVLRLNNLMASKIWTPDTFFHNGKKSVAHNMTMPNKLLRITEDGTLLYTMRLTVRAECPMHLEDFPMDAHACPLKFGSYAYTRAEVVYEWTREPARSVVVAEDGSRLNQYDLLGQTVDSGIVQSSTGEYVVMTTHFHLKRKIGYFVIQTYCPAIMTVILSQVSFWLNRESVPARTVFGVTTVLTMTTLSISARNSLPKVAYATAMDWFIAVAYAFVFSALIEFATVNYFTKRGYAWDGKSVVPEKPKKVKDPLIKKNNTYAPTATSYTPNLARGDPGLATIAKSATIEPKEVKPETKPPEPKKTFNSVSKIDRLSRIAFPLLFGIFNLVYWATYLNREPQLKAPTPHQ
Chain of α1(L232C)β2(M286C)γ2 GABAAR (P47870 25-474 isoform P47870-1 M310C/C312A limits assumed): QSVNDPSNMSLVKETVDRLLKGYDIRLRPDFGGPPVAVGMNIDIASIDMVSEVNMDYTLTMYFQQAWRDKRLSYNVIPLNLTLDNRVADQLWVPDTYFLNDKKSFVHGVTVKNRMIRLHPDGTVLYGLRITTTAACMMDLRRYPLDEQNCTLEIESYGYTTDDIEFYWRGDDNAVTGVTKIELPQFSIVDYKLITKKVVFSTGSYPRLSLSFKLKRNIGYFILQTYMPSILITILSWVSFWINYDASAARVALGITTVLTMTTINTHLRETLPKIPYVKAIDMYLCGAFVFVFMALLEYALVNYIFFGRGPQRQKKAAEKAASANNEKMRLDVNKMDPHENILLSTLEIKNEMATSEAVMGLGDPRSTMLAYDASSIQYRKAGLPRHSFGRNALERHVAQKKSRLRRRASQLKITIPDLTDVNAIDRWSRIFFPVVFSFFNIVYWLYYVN
Chain of α1(L232C)β2(M286C)γ2 GABAAR (P18508 39-466 C282A/C341A): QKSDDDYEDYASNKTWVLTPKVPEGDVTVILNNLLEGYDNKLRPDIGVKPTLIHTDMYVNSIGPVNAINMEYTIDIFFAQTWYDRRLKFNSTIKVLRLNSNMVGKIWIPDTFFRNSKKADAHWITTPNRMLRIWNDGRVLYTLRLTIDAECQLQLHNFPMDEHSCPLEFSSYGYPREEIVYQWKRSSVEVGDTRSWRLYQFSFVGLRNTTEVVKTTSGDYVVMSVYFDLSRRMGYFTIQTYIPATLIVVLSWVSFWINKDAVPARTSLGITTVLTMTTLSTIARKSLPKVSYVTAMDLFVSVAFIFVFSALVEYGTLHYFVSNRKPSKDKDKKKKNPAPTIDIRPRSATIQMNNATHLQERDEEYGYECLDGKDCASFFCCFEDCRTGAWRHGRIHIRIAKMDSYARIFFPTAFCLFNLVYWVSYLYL

[3] = molecular target: β2(N265C)-containing GABAARs (UniProt P18508+P47870+P62813, C260A/C282A/C312A/C319A/C341A/N289C); experiment: as above; assay type: cell-based, rat α1 and γ2s, human β2
bovine GABAAR = settings: ref Li et al. 2010; cited from earlier work
[4] = tested on: recombinant α1β3γ2 GABAARs; settings: in the presence of GABA; ref Chiara et al. 2013; cited from earlier work
wild-type GLIC = settings: intra-subunit binding; ref Weng et al. 2010; cited from earlier work
α1(L232C)β2γ2 GABAAR = α1(L232C)β2γ2 GABAAR (UniProt P18508+P47870+P62813, C260A/C282A/C312A/C319A/C341A/L258C); experiment: GABA-induced currents, two-electrode voltage clamp in Xenopus laevis oocytes; assay type: cell-based, rat α1 and γ2s, human β2
Chain of α1(L232C)β2γ2 GABAAR (P62813 28-455 L258C/C260A/C319A): as the sequence (P62813 28-455 L258C/C260A/C319A) above
Chain of α1(L232C)β2γ2 GABAAR (P47870 25-474 isoform P47870-1 C312A limits assumed): as the sequence (P47870 25-474 isoform P47870-1 M310C/C312A limits assumed) above, with C286M counted along it
Chain of α1(L232C)β2γ2 GABAAR (P18508 39-466 C282A/C341A): as the sequence (P18508 39-466 C282A/C341A) above

α1β2(T225C)γ2 GABAAR = α1β2(T225C)γ2 GABAAR (UniProt P18508+P47870+P62813, C260A/C282A/C312A/C319A/C341A/T249C); experiment: as above; assay type: cell-based, rat α1 and γ2s, human β2; settings: EC10 GABA; BMTS 0.5 mM co-applied with maximal GABA
[5] = molecular target: α1β2γ2 Cys-less GABAAR [α1(C234A,C293A)β2(C288A)γ2(C244A,C303A)] (UniProt P18508+P47870+P62813, C260A/C282A/C312A/C319A/C341A); experiment: as above; assay type: cell-based, rat α1 and γ2s, human β2; settings: for Modulation of the Cys-less receptor compared with WT: Cys-less versus wild-type α1β2γ2
[6] = molecular target: β2C288-containing GABAARs (UniProt P18508+P47870+P62813, C260A/C282A/C319A/C341A); experiment: as above; assay type: cell-based, rat α1 and γ2s, human β2; settings: EC10 GABA; BMTS 0.5 mM co-applied with maximal GABA
[7] = molecular target: α1β2(T225C,N265C)γ2 GABAAR (UniProt P18508+P47870+P62813, C260A/C282A/C312A/C319A/C341A/N289C/T249C); experiment: as above; assay type: cell-based, rat α1 and γ2s, human β2; settings: change vs initial response, compared with Cys-less; 1 mM GABA; DTT 2 mM 2 min
[8] = molecular target: α1(Q229C)β2(N265C)γ2 GABAAR (UniProt P18508+P47870+P62813, C260A/C282A/C312A/C319A/C341A/N289C/Q255C); experiment: as above; assay type: cell-based, rat α1 and γ2s, human β2; settings: change vs initial response, compared with Cys-less; EC50 GABA; DTT 2 mM 2 min
[9] = molecular target: α1(Q229C)β2(M286C)γ2 GABAAR (UniProt P18508+P47870+P62813, C260A/C282A/C312A/C319A/C341A/M310C/Q255C); experiment: as above; assay type: cell-based, rat α1 and γ2s, human β2; settings: change vs initial response, compared with Cys-less; EC50 GABA; DTT 2 mM 2 min
[10] = molecular target: α1β2(N265C,L285C)γ2 GABAAR (UniProt P18508+P47870+P62813, C260A/C282A/C312A/C319A/C341A/L309C/N289C); experiment: as above; assay type: cell-based, rat α1 and γ2s, human β2
[11] = molecular target: α1β2(T225C,C288)γ2 GABAAR (UniProt P18508+P47870+P62813, C260A/C282A/C319A/C341A/T249C); experiment: as above; assay type: cell-based, rat α1 and γ2s, human β2; settings: change vs initial response, compared with Cys-less; EC50 GABA; DTT 2 mM 2 min
[12] = molecular target: α1β2(N265C,M286C)γ2 GABAAR (UniProt P18508+P47870+P62813, C260A/C282A/C312A/C319A/C341A/M310C/N289C); experiment: as above; assay type: cell-based, rat α1 and γ2s, human β2; settings: change vs initial response, compared with Cys-less; EC50 GABA; DTT 2 mM 2 min
[13] = molecular target: α1(L232C)β2(F289C)γ2 GABAAR (UniProt P18508+P47870+P62813, C260A/C282A/C312A/C319A/C341A/F313C/L258C); experiment: as above; assay type: cell-based, rat α1 and γ2s, human β2; settings: change vs initial response, compared with Cys-less; 100 μM GABA; DTT 2 mM 2 min
[14] = molecular target: α1β2(N265C,F289C)γ2 GABAAR (UniProt P18508+P47870+P62813, C260A/C282A/C312A/C319A/C341A/F313C/N289C); experiment: as above; assay type: cell-based, rat α1 and γ2s, human β2; settings: change vs initial response, compared with Cys-less; EC50 GABA; DTT 2 mM 2 min
[15] = molecular target: α1β2(N265C,C288)γ2 GABAAR (UniProt P18508+P47870+P62813, C260A/C282A/C319A/C341A/N289C); experiment: as above; assay type: cell-based, rat α1 and γ2s, human β2
[16] = tested on: mutated alcohol-sensitive GLIC; settings: inter-subunit binding; ref Howard et al. 2011; cited from earlier work
α1(Q229C)β2γ2 GABAAR = α1(Q229C)β2γ2 GABAAR (UniProt P18508+P47870+P62813, C260A/C282A/C312A/C319A/C341A/Q255C); experiment: GABA-induced currents, two-electrode voltage clamp in Xenopus laevis oocytes; assay type: cell-based, rat α1 and γ2s, human β2; settings: Butanol (33 mM) modulation of EC10 GABA; after versus before BMTS labeling
[17] = molecular target: β2(L285C)-containing GABAARs (UniProt P18508+P47870+P62813, C260A/C282A/C312A/C319A/C341A/L309C); experiment: as above; assay type: cell-based, rat α1 and γ2s, human β2
[18] = single cysteine mutant, no treatment
[19] = Isoflurane 0.3 and 0.9 mM on EC10 GABA, after Cu^++:Phen versus after DTT
[20] = Isoflurane 0.3 mM on EC10 GABA, after versus before BMTS labeling
[21] = EC10 GABA, BMTS 0.5 mM co-applied with maximal GABA
[22] = change vs initial response, compared with Cys-less, EC50 GABA, DTT 2 mM 2 min
[23] = Butanol modulation of EC10 GABA, 11 and 33 mM, after Cu^++:Phen versus after DTT
[24] = Butanol (33 mM) modulation of EC10 GABA, after versus before BMTS labeling

Chain of α1β2(F289C)γ2 GABAAR (P62813 28-455 C260A/C319A): as the sequence (P62813 28-455 L258C/C260A/C319A) above, with C231L counted along it
Chain of α1β2(F289C)γ2 GABAAR (P47870 25-474 isoform P47870-1 C312A/F313C limits assumed): as the sequence (P47870 25-474 isoform P47870-1 M310C/C312A limits assumed) above, with C286M, F289C counted along it
Chain of α1β2(F289C)γ2 GABAAR (P18508 39-466 C282A/C341A): as the sequence (P18508 39-466 C282A/C341A) above

FC(F)OC(Cl)C(F)(F)F (stereo not drawn) [Isoflurane]
Isoflurane effect after BMTS labeling (α1β2(F289C)γ2 GABAAR; EC10 GABA, after versus before BMTS treatment, data not shown): switched from very small, and even inhibitory effects, to potentiation
Isoflurane potentiation of GABA responses compared with the Cys-less receptor (α1β2(F289C)γ2 GABAAR; [18]): decreased
Isoflurane potentiation after oxidation (crosslink) [1, 19]: decrease
Isoflurane potentiation after BMTS labeling (α1β2(M286C)γ2 GABAAR; [20]): decreased
Isoflurane effect after oxidation (crosslink) [2, 19]: no changes
Isoflurane potentiation after BMTS labeling [3, 20]: decreased
Block of etomidate analog photolabeling (bovine GABAAR): isoflurane could

CCCCCCCCO [octanol]
Block of photolabeling [4]: blocked
Block of etomidate analog photolabeling (bovine GABAAR): neither octanol nor ethanol could block

CC(C)c1cccc(C(C)C)c1O [propofol]
Effect on channel function (wild-type GLIC): inhibits

FC(F)OC(F)C(F)(F)F (stereo not drawn) [desflurane]
Effect on channel function (wild-type GLIC): inhibits

CCCCSS(C)(=O)=O [BMTS, butyl methanethiosulfonate]
GABA responses after BMTS + GABA (α1(L232C)β2γ2 GABAAR; [21]): Increase
GABA responses after BMTS + GABA (α1β2(T225C)γ2 GABAAR): No net change
GABA responses after BMTS + GABA [5, 21]: No change
GABA responses after BMTS + GABA (α1β2(M286C)γ2 GABAAR; [21]): Increase
GABA responses after BMTS + GABA [6]: No change

[Zn] [zinc]
Modulation of the Cys-less receptor compared with WT [5]: essentially the same as WT

O[C@@H](CS)[C@@H](O)CS (racemic) [DTT, dithiothreitol]
GABA responses After DTT [7]: Increase
GABA responses After DTT [1, 22]: No change
GABA responses After DTT [8]: Decrease
GABA responses After DTT [9]: Increase
GABA responses After DTT [10, 22]: No change
GABA responses After DTT [11]: Increase
GABA responses After DTT ([5]; change vs initial response, EC50 GABA, DTT 2 mM 2 min): No change
GABA responses After DTT [12]: Decrease
GABA responses After DTT [13]: Increase
GABA responses After DTT [14]: Increase
GABA responses After DTT [2, 22]: No change
GABA responses After DTT [15, 22]: No change

CCO [ethanol]
Effect on channel function [16]: potentiates
Modulation of the Cys-less receptor compared with WT [5]: essentially the same as WT

CCCCO [Butanol, butanol]
Butanol potentiation of GABA responses compared with the Cys-less receptor (α1β2(F289C)γ2 GABAAR; [18]): decreased
Butanol effect After crosslink [1, 23]: Decrease
Change in the butanol potentiation after oxidation ([1]; Butanol on EC10 GABA, after Cu^++:Phen versus after DTT): −51%
Butanol effect after BMTS labeling (α1(L232C)β2γ2 GABAAR; [24]): No change
Butanol potentiation of GABA responses compared with the Cys-less receptor (α1(L232C)β2γ2 GABAAR; [18]): decreased
Butanol effect after BMTS labeling (α1(Q229C)β2γ2 GABAAR): No change
Butanol effect After crosslink [10, 23]: Decrease
Butanol effect after BMTS labeling [17, 24]: No change
Butanol potentiation of GABA responses compared with the Cys-less receptor [17, 18]: decreased
Butanol effect after BMTS labeling [5, 24]: No change/ Small decrease
Butanol effect After crosslink [5, 23]: No change
Butanol effect after BMTS labeling (α1β2(M286C)γ2 GABAAR; [24]): Decrease
Butanol potentiation of GABA responses compared with the Cys-less receptor (α1β2(M286C)γ2 GABAAR; [18]): decreased
Butanol effect After crosslink [2, 23]: No change
Butanol effect After crosslink [15, 23]: Decrease
Butanol effect after BMTS labeling [3, 24]: Decrease
Butanol potentiation of GABA responses compared with the Cys-less receptor [3, 18]: decreased

From paper PMC4186771 (Journal of neurochemistry, 2013)
